Test results reported in article PMC12135066, “Design and Preclinical Evaluation of Novel uPAR-Targeting Radiopeptides Modified with an Albumin-Binding Entity” (Molecular Pharmaceutics, 2025).

What was measured:
[1] = Radiolytic stability of the radiopeptides in saline with L-ascorbic acid; conditions: 50 MBq/nmol in saline, 150 MBq/300 µL, L-ascorbic acid (3 mg, 20 µL) and NaOAc (0.5 M, 30 µL), HPLC, product peak relative to t=0 (100%), average ± SD, n=3
[2] = system: human serum albumin (HSA); experiment: Albumin-binding properties in human blood plasma (ultrafiltration assay)
Protocol: The relative albumin-binding affinities of the radiopeptides in mouse and human blood plasma were determined using an ultrafiltration assay with Amicon centrifugal filters (cutoff of 10 kDa; Merck Millipore), as previously reported (Supporting Information). A fixed amount of the respective radiopeptide (15 μL, ∼300 kBq, 0.006 nmol) was added to a defined volume (150 μL) of mouse and human blood plasma dilutions to obtain [mouse serum albumin (MSA)]-to-[radiopeptide] and [human serum albumin (HSA)]-to-[radiopeptide] molar concentration ratios of 0.01–12,500 and 0.01–20,000, respectively. The data were analyzed using a semilogarithmic Hill plot with the maximum binding set as 100% (GraphPad Prism software, version 8.3.1).
Determination of the Albumin-Binding Properties
Purpose: The radiopeptides were investigated with regard to their albumin-binding capabilities in vitro
as a measure to predict blood retention in vivo.
Methods: The relative albumin-binding affinity of the radiopeptides in mouse blood plasma (Rockland
Immunochemicals, Inc., U.S.A.) and human blood plasma (Stiftung Blutspende SRK Aargau-
Solothurn, Switzerland) were determined using an ultrafiltration method. The amount of mouse serum
albumin (MSA) and human serum albumin (HSA) in mouse and human blood plasma was defined as
550 μM and 800 μM, respectively, based on measurements using a dry chemistry analyzer (DRI-CHEM
4000i, FUJIFILM, Japan). A fixed amount of radiopeptide (50 MBq/nmol, ~300 kBq, 15 μL, 0.006
nmol) was added to a defined volume (150 μL) of mouse and human blood plasma and various dilutions
thereof in PBS pH 7.4, resulting in defined [MSA]-to-[radiopeptide] or [HSA]-to-[radiopeptide] molar
concentration ratios ranging from 0.01 ‒12500 and 0.01‒20000, respectively, followed by incubation of
the samples at 37 °C for 30 min. Ice-cold PBS (150 µL, pH 7.4) was added before loading the blood
plasma samples on Amicon centrifugal filters (cut -off of 10 kDa; Merck Millipore) followed by
centrifugation (14000 rcf, 30 min, 4 °C) to allow the separation of the plasma protein -bound from the
plasma-unbound (free) fractions of each sample. The inserts of the filter devices were inverted and centrifuged at 200 rcf for 3 min to recover the protein -bound radiopeptide. The activity in the filtrate
and filter unit was measured in a γ-counter (1480 Wizard, PerkinElmer) and the counts were combined
assuming that the fraction retained in the filter membrane was not bound to proteins. The protein -bound
fraction was expressed as percentage of the whole activity (i.e. plasma protein -bound activity, activity
measured in the filtrate and activity measured in the filter (set as 100%) ). The data were analyzed using
a semi-logarithmic plot assuming a maximum binding of 100%. The Hill equation was fitted to the data
points and the half -maximum binding ( B50) based on the average curve obtained from three independent
experiments (GraphPad Prism software, version 8.3 .1). The relative albumin-binding affinit ies of the
reference compound, whose relative binding affinity was set as 1.0. The results were presented as the
B50 value obtained from the average curve from 3 independent experiments.

[3] = system: HEK-uPAR xenograft-bearing nude mice; experiment: Biodistribution studies in HEK-uPAR xenograft-bearing nude mice; conditions: average ± SD, n=3 animals
Protocol: (§1) All applicable international, national, and/or institutional guidelines for the care and use of laboratory animals were followed, and the herein reported experiments were carried out according to the guidelines of the Swiss Regulations for Animal Welfare. The preclinical studies were ethically approved by the Cantonal Committee of Animal Experimentation and permitted by the responsible cantonal authorities (License No. 75721). Five-week-old female CD1/nude (Crl:CD1-Foxn ^ nu ) and female immunocompetent FVB (FVB/NCrl) mice were obtained from Charles River Laboratories (Sulzfeld, Germany). All mice were acclimatized for at least 7 days, receiving standard rodent chow ad libitum before being included in the reported studies. The CD1/nude mice were subcutaneously inoculated with HEK-uPAR cells (7 × 10^6 cells in 100 μL PBS) on the right shoulder. […] Typically, it took 3–11 weeks to reach xenograft volumes of 40–600 mm^3 at the time of testing the tissue distribution of the radiopeptides. The immunocompetent FVB mice were used for testing the in vivo stability of the radiopeptides.
(§2) The mice were injected with the radiopeptides (5 MBq, 0.5 nmol, 100 μL) in saline containing 0.05% BSA and sacrificed at 4 and 24 h after injection of the radiopeptides. Selected tissues and organs were collected, weighed, and measured with the γ-counter (1480 Wizard, PerkinElmer). […] A p-value of <0.05 was considered a statistically significant difference (GraphPad Prism software, version 8.3.1).
(§3) Decay-corrected data is shown as average ± SD of n = 3 animals of % injected activity per gram (IA/g) tissue.

[4] = as above; conditions: female, mouse, 0.5 nmol, total radioactivity, 5 MBq, 0.5 nmol, decay-corrected, average ± SD, n=3 animals; for tissue uptake at 24 h: 24 h p.i.; for tissue uptake at 4 h: 4 h p.i.
Protocol: as §1, §2, §3

[5] = Stability of the radiopeptides in mouse blood plasma; conditions: mouse
[6] = Stability of the radiopeptides in human blood plasma; conditions: human
human uPAR = target: T1, human uPAR (Homo sapiens, UniProt Q03405); experiment: uPAR-binding affinity (KD values), saturation experiments with HEK-uPAR cells; conditions: saturation binding on HEK-uPAR cells, on ice (4 °C) 1 h, 1–1600 nM radiopeptide, ± AE105 40 µM; γ-counter; nonlinear regression; average ± SD, n=3
T1 construct: host or cells: HEK cells (HEK-uPAR)
Protocol: To determine the uPAR-binding affinity of the radiopeptides, saturation experiments were performed using HEK-uPAR cells in 48-well plates (Supporting Information). The cells were incubated on ice for 1 h in the presence or absence of excess AE105 (final concentration of 40 μM) together with the respective radiopeptide at a concentration range of 1–1600 nM. After rinsing the cells with PBS, they were lysed with an aqueous NaOH solution (1 M, 600 μL), transferred to radioimmunoassay tubes, and measured in a γ-counter (1480 Wizard, PerkinElmer). The K D values were determined by plotting the specific binding (values of samples incubated without AE105 minus the values of samples incubated with AE105) against the molar concentration of the added peptide. A nonlinear regression analysis was performed using GraphPad Prism software (version 8.3.1). The results were expressed as average ± SD of n = 3 independently performed experiments. […]
7. Determination of uPAR-Binding Affinity (KD Values)
Purpose: The uPAR-binding affinity of the radiopeptides were determined to investigate the impact of structural changes on the receptor binding.
Methods: HEK-uPAR cells were seeded in poly-D-lysine-coated 48-well plates (0.25 × 10 6 in 0.5 mL per well) using DMEM cell culture medium with supplements. The cells were incubated at 37 °C and 5% CO2 overnight to allow adhesion and growth. After removing the supernatant, the well plates with HEK-uPAR cells were placed on ice to prevent internalization of the radiopeptides. The cells were rinsed with cold PBS (0.5 mL, pH 7.4) followed by the addition of DMEM cell culture medium without supplements (450 µL/well) in the presence or absence of AE105 ( final concentration 40 µM) as a receptor-blocking agent. The radiopeptides (5 MBq/nmol) were diluted in PBS to obtain peptide concentrations ranging from 10 ‒16000 nM. From each dilution, 50 µL were added to each well to obtain final peptide concentrations of 1 nM to 1600 nM. The cells were incubated at 4 °C for 1 h before rinsing twice with PBS (0.5 mL, pH 7.4). The cells were lysed using an aqueous NaOH solution (1 M, 600 µL) and the lysates were transferred to RIA tubes for counting the activity in a γ-counter (1480 Wizard, PerkinElmer) . The KD values were determined by plotting specific binding (total binding minus unspecific binding) against the molar concentration of the added radiopeptide using GraphPad Prism (version 8.3.1). the results were then expressed as average K D values ± SD of n = 3 independent […]
Results: The results are reported in the main article.

[7] = n-Octanol/PBS distribution coefficients (logD values); conditions: n-octanol/PBS pH 7.4, pH 7.4
Protocol: The radiopeptides diluted in phosphate-buffered saline (PBS) pH 7.4 (25 μL, ∼0.5 MBq, 0.01 nmol) were added to a mixture of PBS pH 7.4 (1475 μL) and n-octanol (1500 μL). The vials were vortexed vigorously for 1 min, followed by centrifugation (560 rcf, 6 min) for phase separation. Aliquots were taken from each phase and measured in a γ-counter (1480 Wizard, PerkinElmer). The distribution coefficients were calculated as the logarithmic value of the ratio of counts per minute (cpm) measured in the n-octanol phase relative to the cpm measured in the PBS phase.
Methods: The logD value of all radiopeptides was determined in a mixture of n-octanol and phosphate
buffered saline (PBS) pH 7.4 using phase separation followed by liquid-liquid extraction.
polystyrene radioimmunoassay (RIA) tubes were prepared for each radiopeptide with 1.5 mL n-octanol
and 1.475 mL PBS pH 7.4. The RIA tubes were rigorously vortexed and subsequently let to stand so
that the phase separation could take place. The radiopeptides (50 MBq/nmol) were diluted with PBS
pH 7.4 to obtain an activity concentration of 10 MBq/0.5 mL. A volume of 25 μL of these solutions
was added to each RIA tube (25 µL, ~0.5 MBq, 0.01 nmol) followed by vortexing for 1 min.
separation was achieved by centrifugation at 560 rcf for 6 min. The activity in the n-octanol and PBS
phase, respectively, was measured in a γ-counter (Wallac Wizard 1480, PerkinElmer).
coefficients were calculated as the logarithm of the ratio of counts per minute (cpm) measured in the n-
octanol phase relative to the cpm measured in the PBS pH 7.4 phase.
as described above three independent times for each radiopeptide.

[8] = CD1/nude, blood, 5 MBq (0.5 nmol)
[9] = CD1/nude, bone, 5 MBq (0.5 nmol)
[10] = CD1/nude, brain, 5 MBq (0.5 nmol)
[11] = CD1/nude, heart, 5 MBq (0.5 nmol)
[12] = CD1/nude, intestines, 5 MBq (0.5 nmol)
[13] = CD1/nude, kidneys, 5 MBq (0.5 nmol)
[14] = CD1/nude, liver, 5 MBq (0.5 nmol)
[15] = CD1/nude, lung, 5 MBq (0.5 nmol)
[16] = CD1/nude, muscle, 5 MBq (0.5 nmol)
[17] = CD1/nude, pancreas, 5 MBq (0.5 nmol)
[18] = CD1/nude, salivary glands, 5 MBq (0.5 nmol)
[19] = CD1/nude, spleen, 5 MBq (0.5 nmol)
[20] = CD1/nude, stomach, 5 MBq (0.5 nmol)

T1 sequence (Q03405 23-335): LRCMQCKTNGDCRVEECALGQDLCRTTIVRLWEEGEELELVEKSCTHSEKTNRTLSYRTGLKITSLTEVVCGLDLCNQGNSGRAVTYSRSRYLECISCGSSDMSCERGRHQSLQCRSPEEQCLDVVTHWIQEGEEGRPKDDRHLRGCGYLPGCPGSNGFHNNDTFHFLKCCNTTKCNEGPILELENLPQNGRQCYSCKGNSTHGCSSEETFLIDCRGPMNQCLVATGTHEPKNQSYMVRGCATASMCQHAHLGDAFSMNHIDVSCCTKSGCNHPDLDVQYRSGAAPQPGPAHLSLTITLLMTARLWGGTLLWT

With `CC(C)C[C@H](NC(=O)[C@H](Cc1ccc(O)cc1)NC(=O)[C@@H](CCCNC(=N)N)NC(=O)[C@@H](CO)NC(=O)[C@H](Cc1ccccc1)NC(=O)[C@H](CC1CCCCC1)NC(=O)[C@H](CC(=O)O)NC(=O)CCOCCOCCOCCOCCNC(=O)[C@H](CCCCNC(=O)CCCc1ccc(I)cc1)NC(=O)CN1CCN(CC(=O)O)CCN(CC(=O)O)CCN(CC(=O)O)CC1)C(=O)N[C@@H](Cc1c[nH]c2ccccc12)C(=O)N[C@@H](CO)C(N)=O` [[^177Lu]Lu-uPAR-05, metal not drawn] the “radiolytic stability, % intact radiopeptide” value ([1]; 1 h) was 99 ± 2%, the “radiolytic stability, % intact radiopeptide” value ([1]; 4 h) was 97 ± 1% and the “radiolytic stability after 24 h, intact radiopeptide [%]” value ([1]; 24 h) was 93 ± 1%. The “fold lower albumin-binding affinity than [177Lu]Lu-uPAR-01” value ([2]; human blood plasma, ultrafiltration) was 2.4 fold, the “Relative albumin-binding affinity, human blood plasma” value ([2]; ultrafiltration (Amicon, 10 kDa), human blood plasma dilutions in PBS pH 7.4, [HSA]-to-[radiopeptide] 0.01–20000, 0.006 nmol, 37 °C 30 min, γ-counter, inverse ratio of B50, [177Lu]Lu-uPAR-01 set as 1.00, average curve of 3 experiments) was 0.43 and the Xenograft-to-blood ratio ([3]; 4 h p.i.) was 0.42 ± 0.07. For the same compound, the Xenograft-to-kidney ratio ([3]; 4 h p.i.) was 1.4 ± 0.2, the Xenograft-to-liver ratio ([3]; 4 h p.i.) was 0.98 ± 0.10 and the Xenograft-to-blood ratio ([3]; 24 h p.i.) was 0.66 ± 0.12. It also gave a Xenograft-to-kidney ratio ([3]; 24 h p.i.) of 1.9 ± 0.3, a Xenograft-to-liver ratio ([3]; 24 h p.i.) of 2.9 ± 0.3 and a tissue uptake at 24 h ([4]; CD1/nude (Crl:CD1-Foxn nu), HEK-uPAR xenograft, HEK-uPAR xgft) of 3.1 ± 0.7 %ID/g. For the same compound, the tissue uptake at 4 h ([4]; CD1/nude, HEK-uPAR xenograft, 5 MBq (0.5 nmol), HEK-uPAR xgft) was 5.1 ± 1 %ID/g, the tissue uptake at 4 h [4, 8] was 12 ± 1 %ID/g and the tissue uptake at 24 h [4, 8] was 4.6 ± 0.3 %ID/g. The tissue uptake at 4 h [4, 9] was 1.1 ± 0.1 %ID/g, the tissue uptake at 24 h [4, 9] was 0.67 ± 0.06 %ID/g and the tissue uptake at 4 h [4, 10] was 0.27 ± 0.01 %ID/g. It also gave a tissue uptake at 24 h [4, 10] of 0.11 ± 0.02 %ID/g, a tissue uptake at 4 h [4, 11] of 4.1 ± 0.2 %ID/g and a tissue uptake at 24 h [4, 11] of 1.6 ± 0.1 %ID/g. It also gave a tissue uptake at 4 h [4, 12] of 1.6 ± 0.1 %ID/g, a tissue uptake at 24 h [4, 12] of 0.73 ± 0.07 %ID/g and a tissue uptake at 4 h [4, 13] of 3.6 ± 0.2 %ID/g. It also gave a tissue uptake at 24 h [4, 13] of 1.6 ± 0.1 %ID/g, a tissue uptake at 4 h [4, 14] of 5.2 ± 0.6 %ID/g and a tissue uptake at 24 h [4, 14] of 1.1 ± 0.1 %ID/g. For the same compound, the tissue uptake at 4 h [4, 15] was 7 ± 0.5 %ID/g, the tissue uptake at 24 h [4, 15] was 2.6 ± 0.4 %ID/g and the tissue uptake at 4 h [4, 16] was 1.1 ± 0.1 %ID/g. The tissue uptake at 24 h [4, 16] was 0.41 ± 0.04 %ID/g, the tissue uptake at 4 h [4, 17] was 1.4 ± 0.2 %ID/g and the tissue uptake at 24 h [4, 17] was 0.62 ± 0.07 %ID/g. The tissue uptake at 4 h [4, 18] was 2.5 ± 0.3 %ID/g, the tissue uptake at 24 h [4, 18] was 1.1 ± 0.1 %ID/g and the tissue uptake at 4 h [4, 19] was 1.5 ± 0.1 %ID/g. For the same compound, the tissue uptake at 24 h [4, 19] was 0.82 ± 0.1 %ID/g, the tissue uptake at 4 h [4, 20] was 1.3 ± 0.1 %ID/g and the tissue uptake at 24 h [4, 20] was 0.64 ± 0.01 %ID/g. The remaining at 1 h, 10 MBq/200 µL ([5]; blood plasma) was 99 ± 1%, the remaining at 24 h, 10 MBq/200 µL ([5]; blood plasma) was 98 ± 2% and the remaining at 4 h, 10 MBq/200 µL ([5]; mouse blood plasma) was 98 ± 2%. It also gave a remaining at 1 h, 10 MBq/200 µL ([6]; blood plasma) of 99 ± 1%, a remaining at 24 h, 10 MBq/200 µL ([6]; blood plasma) of 99 ± 1% and a remaining at 4 h, 10 MBq/200 µL ([6]; human blood plasma) of 99 ± 1%. For the same compound, the Kd (human uPAR) was 0.01 ± 0.005 µM and the logD [7] was 0.24 ± 0.09.
